Results from publication PMC7232442, “Biofilm Eradication by Symmetrical Selenoesters for Food-Borne Pathogens” (Microorganisms, 2020).
In brackets after ≈: the same amount, converted by molar mass. Several values for one entry are separate records, joined by “and”; a condition that tells them apart may be missing. Equal entries are not always repeated. Structures can show the parent of a compound that is named as a salt. Where two headings read alike, the source gives them in different places.

Key:
[1] = test system: S. Typhimurium SE01 Wild-Type; experiment: Real-time ethidium bromide accumulation assay; type: cell-based, Salmonella enterica serovar Typhimurium; details: ½ MIC, minute 60
Description: (§1) The impact of compounds on EB accumulation was determined by the automated EB method using a CLARIOstar Plus plate reader (BMG Labtech, UK). Firstly, the bacterial strain was incubated until it reached an optical density (OD) of 0.6 at 600 nm. The culture was washed with phosphate buffered saline (PBS; pH 7.4) and centrifuged at 13,000× g for 3 min, the cell pellet was re-suspended in PBS. The compounds were added at ½ MIC concentration to PBS containing a non-toxic concentration of EB (1 µg/mL). Then, 50 μL of the EB solution containing the compound were transferred into 96-well black microtiter plate (Greiner Bio-One Hungary Kft, Hungary), and 50 μL of bacterial suspension (OD600 0.6) were added to the each well. Then, the plates were placed into the CLARIOstar plate reader, and the fluorescence was monitored at excitation and emission wavelengths of 530 nm and 600 nm every minute for one hour on a real-time basis. From the real-time data, the activity of the compounds, namely the relative fluorescence index (RFI) of the last time point (minute 60) of the EB accumulation assay, was calculated according to the following formula:RFI = (RFtreated − RFuntreated)/RFuntreated(2) where RFtreated is the relative fluorescence (RF) at the last time point of EB retention curve in the presence of an inhibitor, and RFuntreated is the RF at the last time point of the EB retention curve of the untreated control having the solvent control (DMSO).

[2] = test system: S. Typhimurium SE02 ΔacrB; experiment: Real-time ethidium bromide accumulation assay; type: cell-based, Salmonella enterica serovar Typhimurium; details: for Relative Fluorescence Index (RFI): S. Typhimurium SE02 ΔacrB, ½ MIC, minute 60
Description: as §1

[3] = test system: S. Typhimurium SE03 ΔacrA; experiment: Real-time ethidium bromide accumulation assay; type: cell-based, Salmonella enterica serovar Typhimurium; design: key to Relative Fluorescence Index (RFI): RFI = (RFtreated − RFuntreated)/RFuntreated at minute 60; details: for Relative Fluorescence Index (RFI): S. Typhimurium SE03 ΔacrA, ½ MIC, minute 60
Description: as §1

[4] = test system: S. Typhimurium SE39 ΔtolC; experiment: Real-time ethidium bromide accumulation assay; type: cell-based, Salmonella enterica serovar Typhimurium; design: key to Relative Fluorescence Index (RFI): RFI = (RFtreated − RFuntreated)/RFuntreated at minute 60; details: for Relative Fluorescence Index (RFI): S. Typhimurium SE39 ΔtolC, ½ MIC, minute 60; for Intracellular EB accumulation (in words): S. Typhimurium SE39, 60 min
Description: as §1

[5] = test system: S. aureus ATCC 25923; experiment: Real-time ethidium bromide accumulation assay; type: cell-based, Staphylococcus aureus; design: key to Relative Fluorescence Index (RFI): RFI = (RFtreated − RFuntreated)/RFuntreated at minute 60; details: for Relative Fluorescence Index (RFI): S. aureus ATCC 25923, ½ MIC, minute 60
Description: as §1

[6] = test system: S. aureus ATCC 25923; experiment: Resistance modulation assay (checkerboard) with TET or CIP; type: cell-based, Staphylococcus aureus; details: S. aureus ATCC 25923; no selenocompound
Description: (§2) The resistance modulation effect of compounds with ciprofloxacin (CIP) and tetracycline (TET) antibiotics were evaluated by the checkerboard method on S. aureus strains. Briefly, CIP or TET was diluted in a 96-well microtiter plate by two-fold serial dilution in MH broth and then the compounds were added at subinhibitory concentrations (½ MIC). In this assay, only the tested compounds with well-defined MIC values were tested. Finally, 10^−4 dilution of the overnight bacterial culture in MH was added to each well. The final volume was 200 µL in each well. The microtiter plates were incubated at 37 °C for 18 h. MIC values in the presence of the antibiotics alone and in combination with Se-compounds were determined by visual inspection.

[7] = test system: S. aureus MRSA 272123; experiment: as above; type: cell-based, Staphylococcus aureus; details: S. aureus MRSA 272123; no selenocompound
Description: as §2

[8] = test system: C. violaceum 026 sensor strain with AHL producer E. cloacae 31298 (violacein production); experiment: Quorum sensing (QS) inhibition, parallel inoculation disk diffusion; type: cell-based, Chromobacterium violaceum; details: disc with 10 μL compound, starting concentration ½ MIC; 24–48 h
Description: The QS inhibitory effect of selenocompounds was examined on the AHL producer E. cloacae strain and C. violaceum sensor bacterial strain. These strains were inoculated in parallel. The QS inhibition was monitored by agar diffusion method on LB* agar plate as described previously. Filter paper discs (7.0 mm in diameter) were placed between the parallel inoculated strains and impregnated with 10 μL compounds. Starting concentration of the compounds was ½ MIC. The agar plates were incubated at room temperature (20 °C) for 24–48 h and the inhibition of violacein production was measured.

[9] = test system: S. aureus MRSA 272123; experiment: MIC determination by microdilution method; type: cell-based; details: Staphylococcus aureus
Description: (§3) The minimum inhibitory concentrations (MICs) of compounds were determined according to the Clinical and Laboratory Standard Institute guidelines (CLSI). MIC values of the compounds were determined by visual inspection. The solvent was also assayed to ensure there was no antibacterial effect and the concentration (1 v/v%) applied in the assays had no antibacterial activity. DMSO was used at subinhibitory concentration (1 v/v%) in the assays.

[10] = test system: Staphylococcus aureus ATCC 25923; experiment: MIC determination by microdilution method; type: cell-based; details: S. aureus ATCC 25923
Description: as §3

[11] = test system: S. Typhimurium SE01 Wild-Type; experiment: MIC determination by microdilution method; type: cell-based, Salmonella enterica serovar Typhimurium; details: Salmonella enterica
Description: as §3

[12] = test system: S. aureus MRSA 272123; experiment: Real-time ethidium bromide accumulation assay; type: cell-based, Staphylococcus aureus; details: for Relative Fluorescence Index (RFI): S. aureus MRSA 272123, ½ MIC, minute 60
Description: as §1

[13] = test system: S. aureus MRSA; experiment: Biofilm formation using crystal violet; type: cell-based, Staphylococcus aureus; details: for Biofilm inhibition: ½ MIC, 48 h
Description: The anti-biofilm effect of the tested compounds against S. aureus strains and wild-type S. Typhimurium SE01 was measured using crystal violet (CV; 0.1% (v/v)). This dye is used to detect the total biofilm biomass formed. Overnight cultures were diluted to OD of 0.1 at 600 nm in TSB medium. Then, the bacterial cultures were added to 96-well microtiter plates and the compounds were added at ½ MIC concentration. The final volume was 200 μL in each well. The microtiter plates were incubated at 30 °C for 48 h with gentle agitation (100 rpm). After the incubation period, TSB medium was discarded, and the plates were washed with tap water to remove unattached cells. Then 200 μL crystal violet was added to the wells and incubated for 15 min at room temperature. Then, CV was removed from the wells and the plates were washed again with tap water, and 200 μL of 70% ethanol was added to the wells. Finally, the biofilm formation was determined by measuring the OD at 600 nm using Multiscan EX ELISA plate reader (Thermo Labsystems, Cheshire, WA, USA). The anti-biofilm effect of compounds was expressed in the percentage (%) of decrease in biofilm formation.

[14] = test system: MRC-5 human embryonal lung fibroblast cells; experiment: Cytotoxicity assay (MTT); type: cell-based; details: MRC-5 cells
Description: The adherent MRC-5 human embryonal lung fibroblast cells were cultured in 96-well flat-bottomed microtiter plates, using EMEM supplemented with 10% heat-inactivated fetal bovine serum. The density of the cells was adjusted to 1 × 10^4 cells in 100 μL per well, the cells were seeded overnight at 37 °C, 5% CO2, then the medium was removed from the plates containing the cells, and the dilutions of selenocompounds previously made in a separate plate were added to the cells in 200 μL.
The culture plates were incubated at 37 °C for 24 h; at the end of the incubation period, 20 μL of MTT (thiazolyl blue tetrazolium bromide, Sigma) solution (from a stock solution of 5 mg/mL) was added to each well. After incubation at 37 °C for 4 h, 100 μL of sodium dodecyl sulfate (SDS; Sigma) solution (10% in 0.01 M HCI) was added to each well and the plates were further incubated at 37 °C overnight. Cell growth was determined by measuring the optical density (OD) at 540/630 nm with Multiscan EX ELISA reader (Thermo Labsystems, Cheshire, WA, USA). Inhibition of the cell growth was determined according to the formula below:IC50 = 100 − [(ODsample − ODmedium control)/(ODcell control − ODmedium control)] × 100(1)
Results are expressed in terms of IC50, defined as the inhibitory dose that reduces the growth of the cells exposed to the tested compounds by 50%.

[15] = test system: S. Typhimurium SE02 ΔacrB; experiment: MIC determination by microdilution method; type: cell-based, Salmonella enterica serovar Typhimurium; details: Salmonella enterica
Description: as §3

[16] = test system: S. Typhimurium SE03 ΔacrA; experiment: MIC determination by microdilution method; type: cell-based, Salmonella enterica serovar Typhimurium; details: Salmonella enterica
Description: as §3

[17] = test system: S. Typhimurium SE39 ΔtolC; experiment: MIC determination by microdilution method; type: cell-based, Salmonella enterica serovar Typhimurium; details: Salmonella enterica
Description: as §3

[18] = S. aureus MRSA 272123, read-out: MIC
[19] = Staphylococcus aureus, ATCC25923
[20] = S. Typhimurium SE01 wild-type, read-out: MIC

SMILES | Relative Fluorescence Index (RFI) [1] | Relative Fluorescence Index (RFI) [2] | Relative Fluorescence Index (RFI) [3] | Relative Fluorescence Index (RFI) [4] | Relative Fluorescence Index (RFI) [5] | MIC [9, 18] [µM] | MIC [10, 19] [µM] | MIC [11, 20] [µM] | Relative Fluorescence Index (RFI) [12] | IC50 ([14]; Homo sapiens, MRC5, 24 h) [µM] | IC50 ([14]; 24 h) [µM] | MIC [15] [µM] | MIC [16] [µM] | also measured
N#CC(C#N)=NNc1cccc(Cl)c1 [CCCP, carbonyl cyanide m-chlorophenyl hydrazone, reference compound] | 3.50 | 2.46 | 1.81 | 1.32 | 0.52 |  |  |  |  |  |  |  |  | 
O=C(O)c1cn(C2CC2)c2cc(N3CCNCC3)c(F)cc2c1=O [CIP, ciprofloxacin-hydrochloride, reference compound] |  |  |  |  |  |  |  |  |  |  |  |  |  | MIC of the antibiotic alone [6]: 1.06 µM; MIC of the antibiotic alone [7]: 33.99 µM
CC(CN1c2ccccc2Sc2ccccc21)N(C)C (stereo not drawn) [Promethazine, promethazine, reference compound] |  |  |  |  |  |  |  |  |  |  |  |  |  | QS zone of inhibition [8]: 46 mm
N#CC[Se]C(=O)c1ccc(C(=O)[Se]CC#N)cc1 [Se-C1] | −0.08 | 0.06 | 0.04 | 0.13 | 0.14 | 50 (≈ 18.5 µg/mL) | 6.25 (≈ 2.31 µg/mL) | 25 (≈ 9.25 µg/mL) | −0.15 | > 75 | > 100 |  |  | Biofilm inhibition [13]: 43.7% and ~50%
N#CCC[Se]C(=O)c1cccc(C(=O)[Se]CC#N)c1 [Se-C2] | −0.10 | 0.03 | 0.09 | 0.25 | 0.08 | 50 (≈ 19.2 µg/mL) | 6.25 (≈ 2.4 µg/mL) | 25 (≈ 9.6 µg/mL) | −0.13 | > 75 | > 100 |  |  | 
N#CC[Se]C(=O)c1cc(C(=O)[Se]CC#N)cc(C(=O)[Se]CC#N)c1 [Se-C3] | −0.07 | −0.02 | 0.08 | 0.06 | 0.18 |  | 1.56 (≈ 0.805 µg/mL) |  | −0.05 | > 75 | > 100 | 12.5 (≈ 6.45 µg/mL) | 12.5 (≈ 6.45 µg/mL) | MIC ([9]; MRSA): 12.5 µM (≈ 6.45 µg/mL); MIC fold higher than the methylketone selenoester [10]: 4 fold; MIC ([11]; TYPHIMURIUM): 12.5 µM (≈ 6.45 µg/mL); MIC [17]: 25 µM (≈ 12.9 µg/mL)
COC(=O)C[Se]C(=O)c1cccc(C(=O)[Se]CC(=O)OC)c1 [Se-E2] | 0.09 | 0.70 | 0.56 | 0.59 | 0.67 | 100 (≈ 43.6 µg/mL) | 12.5 (≈ 5.45 µg/mL) | > 100 | 0.33 | > 75 | > 100 | > 100 | > 100 | MIC [10]: 12.5 µM (≈ 5.45 µg/mL); MIC [17]: > 100 µM; Intracellular EB accumulation (in words) ([2]; S. Typhimurium SE02, 60 min): significantly increased; Intracellular EB accumulation (in words) ([3]; S. Typhimurium SE03, 60 min): significantly increased; Intracellular EB accumulation (in words) [4]: significantly increased; EPI activity (in words) ([5]; reference (sensitive) S. aureus, 60 min): effective; EPI activity (in words) ([12]; resistant S. aureus MRSA, 60 min): effective
CC(=O)C[Se]C(=O)c1cc(C(=O)[Se]CC(C)=O)cc(C(=O)[Se]CC(C)=O)c1 [Se-K3] | −0.20 | 0.08 | 0.28 | 0.44 | 0.16 | 0.78 (≈ 0.442 µg/mL) | 0.39 (≈ 0.221 µg/mL) | 50 (≈ 28.4 µg/mL) | −0.18 | 0.74 |  | 25 (≈ 14.2 µg/mL) | 25 (≈ 14.2 µg/mL) | MIC [10]: 0.39 µM (≈ 0.221 µg/mL); Intracellular EB accumulation (in words) [4]: significant EB accumulation; Anti-biofilm effect (in words) [13]: most effective anti-biofilm agent; Biofilm inhibition [13]: 84.7%
CN(C)[C@@H]1C(O)=C(C(N)=O)C(=O)[C@@]2(O)C(O)=C3C(=O)c4c(O)cccc4[C@@](C)(O)[C@H]3C[C@@H]12 [TET, tetracycline-hydrochloride, reference compound] |  |  |  |  |  |  |  |  |  |  |  |  |  | MIC of the antibiotic alone [6]: 0.88 µM; MIC of the antibiotic alone [7]: 14.06 µM
